Results as given in patent US6903079B2, “Nucleoside compounds and compositions thereof” (Inotek Pharmaceuticals Corporation, priority 2000, dated 2005).

How the values were obtained:
[1] = tested on: rat model of middle cerebral artery occlusion/reperfusion; experiment: Middle cerebral artery occlusion/reperfusion; type: in vivo; settings: 2 h occlusion, 24 h reperfusion, 10 mg/kg i.v. then 10 mg/kg/h, tetrazolium staining
Protocol: Occlusion lasted for 2 hours, followed by reperfusion for 24 hours. Infarct size was quantified with tetrazolium staining and survival and neurological scores were monitored. The compounds were administered at 10 mg/kg i.v. 5 min before the start of reperfusion in one group, and continued at a rate of 10 mg/kg/h infusion during the reperfusion. Vehicle-treated animals (control) developed a >50% mortality over 24 hours, whereas <10% of the animals died in the drug treated groups. The compounds tested reduced the size of brain infarction by 64±2 and 57±3%, respectively.

[2] = tested on: endotoxin-induced lethality in a mouse model; experiment: Endotoxin-induced lethality (systemic inflammation); type: in vivo
Protocol: The compounds were given as oral gavage at 10 mg/kg, twice a day.

[3] = tested on: mouse model of gut ischemia-reperfusion; experiment: Gut ischemia-reperfusion by ligation and release of superior mesenteric artery; FD4 gut permeability in everted gut sacks; settings: 10 mg/kg i.v. 10 min prior to reperfusion
Protocol: In order to examine the efficacy of the compounds of the invention in ischemia-reperfusion conditions, the effect of selected compounds in a local model of reperfusion injury was examined. […] The artery was occluded for 45 min, followed by reperfusion for 1 h. Following the end of the reperfusion, gut permeability was measured with the fluorescein isothiocyanate-conjugated dextran (FD4) method in everted gut sacks.
The artery was occluded for 45 min, followed by reperfusion for 1 h. Following the end of the reperfusion, gut permeability was measured with the FD4 method in everted gut sacks.

[4] = tested on: myocardial ischemia-reperfusion in Male Wistar rats; experiment: Myocardial infarction by left anterior descending coronary artery occlusion/reperfusion; type: in vivo; settings: rat; 20 mg/kg i.v. 10 min before reperfusion; 1 h ischemia, 2 h reperfusion
Protocol: In another set of experiments, Male Wistar rats were anesthetized with thiopentone sodium (60 mg/kg, i.p.) and were subjected to myocardial infarction. The chest was opened at the fourth intercostal space and a 5.0 silk ligature was placed around the left anterior descending coronary artery for occlusion. Next, one hour of myocardial ischemia was performed, followed by 2 h reperfusion. Myocardial infarct size was quantified by tetrazolium staining.

[5] = target: PARS (Mus musculus, UniProt P11103); experiment: PARS inhibition by nucleoside derivatives (in vitro inflammation models); type: cell-based
Description: For example, conjugates of adenosine derivatives were investigated for PARS inhibition.

Sequence of PARS (P11103 whole entry): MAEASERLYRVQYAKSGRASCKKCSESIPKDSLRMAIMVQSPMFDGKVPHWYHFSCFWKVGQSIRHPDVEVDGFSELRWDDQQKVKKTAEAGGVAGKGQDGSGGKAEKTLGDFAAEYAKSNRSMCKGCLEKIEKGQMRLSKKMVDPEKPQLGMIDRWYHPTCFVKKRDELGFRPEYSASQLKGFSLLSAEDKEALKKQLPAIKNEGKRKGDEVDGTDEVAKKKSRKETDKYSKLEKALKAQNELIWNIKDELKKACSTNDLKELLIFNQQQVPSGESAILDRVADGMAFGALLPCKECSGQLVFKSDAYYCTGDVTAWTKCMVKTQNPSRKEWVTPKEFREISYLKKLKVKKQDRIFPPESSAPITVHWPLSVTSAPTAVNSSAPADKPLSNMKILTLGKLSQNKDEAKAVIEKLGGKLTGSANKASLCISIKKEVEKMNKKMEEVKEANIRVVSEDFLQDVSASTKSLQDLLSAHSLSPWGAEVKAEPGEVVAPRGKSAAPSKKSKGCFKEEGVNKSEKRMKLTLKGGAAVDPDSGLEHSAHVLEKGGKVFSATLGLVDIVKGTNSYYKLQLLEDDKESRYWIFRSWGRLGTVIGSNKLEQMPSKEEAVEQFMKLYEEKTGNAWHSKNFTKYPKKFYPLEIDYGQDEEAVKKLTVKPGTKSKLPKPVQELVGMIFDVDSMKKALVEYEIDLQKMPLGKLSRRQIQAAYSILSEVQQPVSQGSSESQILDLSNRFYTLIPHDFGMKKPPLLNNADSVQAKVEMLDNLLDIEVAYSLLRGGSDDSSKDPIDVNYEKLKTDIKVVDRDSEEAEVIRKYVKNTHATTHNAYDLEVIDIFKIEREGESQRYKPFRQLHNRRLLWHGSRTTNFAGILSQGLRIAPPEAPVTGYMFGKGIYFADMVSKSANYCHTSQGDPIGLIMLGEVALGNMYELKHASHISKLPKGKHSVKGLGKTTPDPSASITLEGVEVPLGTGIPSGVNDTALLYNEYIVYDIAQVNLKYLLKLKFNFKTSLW

SMILES | reduction of the size of brain infarction [1] [%] | protection against endotoxin-induced lethality [2] | reduction of the increase in the permeability of the gut [3] [%] | reduction of myocardial infarct size [4] [%] | PARS inhibitory activity (in words) [5] | inhibition at 10 µM ([5]; 10 μM, values marked *, asterisk not explained, read-out: Inhibition at 10 μM (values marked *)) [%] | Inhibition at 200 nm ([5]; 200 nm, printed in the 100 μM column) [at 200 nm]
CN(CCC(=O)Nc1cccc2c1CNC2=O)C(=O)C1OC(n2cnc3c(N)ncnc32)C(O)C1O (stereo not shown) [Compound 124] | 64±2 | protected against endotoxin-induced lethality | 72 |  |  |  | 
Nc1ncnc2c1ncn2C1OC(C(=O)N2CCN(CC(=O)Nc3cccc4c3CNC4=O)CC2)C(O)C1O (stereo not shown) [Compound 130] | 57±3 | protected against endotoxin-induced lethality | 74 | 35±7 | most potent | 97 | 100
